Test results from US20190000860A1, “USE OF COMPOSITIONS MODULATING CHROMATIN STRUCTURE FOR GRAFT VERSUS HOST DISEASE (GVHD)” (Dana-Farber Cancer Institute, Inc., priority 2014, published 2019).

What was measured:
mice with cGVHD [1] = assay type: in vivo; conditions: for survival after 60 days: mice given BM and T-cells, treatment began 28 days post-transplant (Day 28-56), JQ5 or UNC1999 75 mg/Kg 3 days a week, Bcl6 peptidomimetic every day (Table 3, FIG. 8)
Experimental: B10.BR recipients were conditioned with cytoxan on days −3 and −2 (120 mg/kg/day i.p.). On day −1, recipients received TBI by x-ray (8.3 Gy). B6 donor BM was T-cell depleted with anti-Thy1.2 mAb followed by rabbit complement. T-cells were purified from spleens by incubation with biotin-labeled anti-CD19, anti-CD11b, anti-CD11c, anti-NK1.1 and anti-γδTCR (eBioscience), followed by strepavidin beads and depletion with magnetic column (StemCell Technologies). On day 0, recipients received 10×10^6 T cell depleted BM cells with or without allogeneic spleen purified T cells (0.075-0.1×106), Weights of individual mice were recorded weekly. Where indicated, recipients in BM and T cell groups were given EZH2 inhibitor (either JQ-EZH2-5 ([…]) or JQ1 (50 μg/animal/Daily) in 10% Hydroxypropyl-beta-cyclodextrin and DMSO in a 9:[…]) in PBS.
Animals in this experiment were transplanted with wild-type BM and T-cells and then treated with either Vehicle, EZH2 inhibitor (JQ5 or UNC1999) or Bcl6 inhibitor. Administration of UNC1999 was toxic, resulting in less than 40% survival 63 days post-transplant. (FIG. 8).

mice with cGVHD [2] = test: Pulmonary function tests (lung resistance, elastance, compliance; forced oscillation technique, Scireq Flexivent); assay type: in vivo, mouse (B10.BR recipients)
Experimental: B10.BR recipients were conditioned with cytoxan on days −3 and −2 (120 mg/kg/day i.p.). On day −1, recipients received TBI by x-ray (8.3 Gy). B6 donor BM was T-cell depleted with anti-Thy1.2 mAb followed by rabbit complement. T-cells were purified from spleens by incubation with biotin-labeled anti-CD19, anti-CD11b, anti-CD11c, anti-NK1.1 and anti-γδTCR (eBioscience), followed by strepavidin beads and depletion with magnetic column (StemCell Technologies). On day 0, recipients received 10×10^6 T cell depleted BM cells with or without allogeneic spleen purified T cells (0.075-0.1×106), Weights of individual mice were recorded weekly. Where indicated, recipients in BM and T cell groups were given EZH2 inhibitor (either JQ-EZH2-5 (75 μg/animal/3 times a week) or JQ1 (50 μg/animal/Daily) in 10% Hydroxypropyl-beta-cyclodextrin and DMSO in a 9:1 ratio) or Bcl 79-6 (50 μg/animal/three times a week) in PBS.
(§1) In particular, B10.BR mice were conditioned with 120 mg/Kg of cyclophosphamide on day −3 and −2 and subjected to total body irradiation (830X) on day −1. On Day 0 mice were transplanted with wild type B6 bone marrow with or without splenocytes or purified splenic T cells. Day 28 following transplantation, mice were either given vehicle control or JQ5 (75 mg/Kg 3× a week) until day 56. On Day 60 mice were subjected to forced oscillation technique on the Scireq Flexivent system. Tissues were harvested and analyzed for collagen deposition by trichrome staining, Ig deposition, presence of germinal centers, germinal center B cells, and T follicular helper cells.
as §1, with “Pulmonary function tests were performed on animals treated with Bcl 79-6. The presence of Germinal Center B cells and fibrosis in lungs were also assessed.” for “In particular,”, “Wild Type” for “wild type”, “Bone” for “bone”, “Bcl6 79-6 (50” for “JQ5 (75”, “Daily)” for “3× a week)”, “cells” for “cells,”

mice with cGVHD [3] = test: Collagen deposition in the lungs (trichrome staining); assay type: in vivo, mouse (B10.BR recipients); conditions: for collagen deposition in the lungs vs Vehicle-treated mice: Table 3 experiment, treatment Day 28-56, JQ5 75 mg/Kg 3 days a week, Bcl6 peptidomimetic every day (FIG. 10, 13)
Experimental: (§2) B10.BR recipients were conditioned with cytoxan on days −3 and −2 (120 mg/kg/day i.p.). On day −1, recipients received TBI by x-ray (8.3 Gy). B6 donor BM was T-cell depleted with anti-Thy1.2 mAb followed by rabbit complement. T-cells were purified from spleens by incubation with biotin-labeled anti-CD19, anti-CD11b, anti-CD11c, anti-NK1.1 and anti-γδTCR (eBioscience), followed by strepavidin beads and depletion with magnetic column (StemCell Technologies). On day 0, recipients received 10×10^6 T cell depleted BM cells with or without allogeneic spleen purified T cells (0.075-0.1×106), Weights of individual mice were recorded weekly. Where indicated, recipients in BM and T cell groups were given EZH2 inhibitor (either JQ-EZH2-5 (75 μg/animal/3 times a week) or JQ1 (50 μg/animal/Daily) in 10% Hydroxypropyl-beta-cyclodextrin and DMSO in a 9:[…]) in PBS.
as §1
as §1, with “Pulmonary function tests were performed on animals treated with Bcl 79-6. The presence of Germinal Center B cells and fibrosis in lungs were also assessed.” for “In particular,”, “Wild Type” for “wild type”, “Bone” for “bone”, “Bcl6 79-6 (50” for “JQ5 (75”, “Daily)” for “3× a week)”, “cells” for “cells,”

mice with cGVHD [4] = test: Pulmonary function tests (lung resistance, elastance, compliance; forced oscillation technique, Scireq Flexivent); assay type: in vivo, mouse (B10.BR recipients); remark: listed apart in the source
germinal center B cells = test: Germinal center B cells in cGVHD mice; assay type: in vivo, mouse (B10.BR recipients); conditions: for germinal center B cells in the spleens: Table 3 experiment, Bcl6 peptidomimetic every day, Day 28-56 (FIG. 12)
Experimental: as §2, §1
Pulmonary function tests were performed on animals treated with Bcl 79-6. The presence of Germinal Center B cells and fibrosis in lungs were also assessed. B10.BR mice were conditioned with 120 mg/Kg of cyclophosphamide on day −3 and −2 and subjected to total body irradiation (830X) on day −1. […] Tissues were harvested and analyzed for collagen deposition by trichrome staining, Ig deposition, presence of germinal centers, germinal center B cells and T follicular helper cells.

[5] = additional experiments (not shown), JQ1 treatment
[6] = Table 6 experiment, Bcl6 79-6 50 mg/Kg Daily, day 28 until day 56 (FIG. 19), 50 mg/kg
[7] = Table 6 experiment, Bcl6 79-6 50 mg/Kg Daily, day 28 until day 56, measured Day 60 (FIG. 19)

CCCc1cc(C)[nH]c(=O)c1CNC(=O)c1cc(-c2ccc(N3CCN(C(C)C)CC3)nc2)cc2c1cnn2C(C)C [UNC1999]
survival after 60 days (mice with cGVHD [1]): < 40% | survival 63 days post-transplant (mice with cGVHD [1]; mice given wild-type BM and T-cells, 75 mg/KG UNC1999 3 days a week, Day 28-56 (Table 3, FIG. 8)): less than 40%

Cc1sc2c(c1C)C(c1ccc(Cl)cc1)=N[C@@H](CC(=O)OC(C)(C)C)c1nnc(C)n1-2 [JQ1]
compliance in pulmonary function tests vs vehicle-treated control animals (mice with cGVHD [2]; [5]): significantly increased | elastance in pulmonary function tests vs vehicle-treated control animals (mice with cGVHD [2]; [5]): decreased | resistance in pulmonary function tests vs vehicle-treated control animals (mice with cGVHD [2]; [5]): decreased | collagen deposition in the lungs vs Vehicle-treated control mice (mice with cGVHD [3]; Table 4 experiment, JQ1 50 mg/Kg Daily, Day 28-56 (FIG. 15), 50 mg/kg): decreased collagen deposition | pulmonary function vs Vehicle-treated control mice (mice with cGVHD [4]; Table 4 experiment, JQ1 50 mg/Kg Daily, Day 28-56 (FIG. 14), 50 mg/kg): improves pulmonary function

O=C(O)CC(C(=O)O)N1C(=O)/C(=C2/C(=O)Nc3ccc(Br)cc32)SC1=S (stereo not shown) [79-6]
survival after 60 days (mice with cGVHD [1]): 100% | pulmonary function (lung resistance, elastance and compliance) vs Vehicle-treated mice (mice with cGVHD [2]; Table 3 experiment, treatment Day 28-56, JQ5 75 mg/Kg 3 days a week, Bcl6 peptidomimetic every day (FIG. 9, 11)): improved pulmonary function | collagen deposition in the lungs vs Vehicle-treated mice (mice with cGVHD [3]): decreased | collagen deposition in the lungs vs Vehicle-treated mice (mice with cGVHD [3]; listed as Bcl6 79-6): decreased collagen deposition | collagen in Trichrome staining (lungs) (mice with cGVHD [3]; [6]): decreased collagen | germinal center B cells in the spleens (germinal center B cells): reduction | germinal center B cells in the spleens (germinal center B cells; listed as Bcl6 79-6): decreased germinal center B cells | Germinal Center B cells (germinal center B cells; [6]): decreased Germinal Center B cells | lung compliance (mice with cGVHD [4]; [7]): increase | lung elastance (mice with cGVHD [4]; [7]): decrease | lung resistance (mice with cGVHD [4]; [7]): decrease | pulmonary function (mice with cGVHD [4]; [7]): Restored pulmonary function
